Measurements published in paper PMC11240878, “Synthesis, enzyme inhibition assay, and molecular modeling study of novel pyrazolines linked to 4-methylsulfonylphenyl scaffold: antitumor activity and cell cycle analysis” (RSC Advances, 2024).

Columns and labels:
SK-MEL-2 = assay: NCI single-dose GI%, melanoma; format: cell-based, human; conditions: SK-MEL-2, melanoma; 10.0 μM in one dose
NCI-H226 = assay: NCI single-dose GI%, NSC lung; format: cell-based, human; conditions: 10.0 μM in one dose
MDA-MB-231/ATCC = assay: NCI single-dose GI%, breast; format: cell-based, human; conditions: 10.0 μM in one dose
SNB-75 = assay: NCI single-dose GI%, CNS; format: cell-based, human; conditions: SNB-75, CNS; 10.0 μM in one dose
UO-31 = assay: NCI single-dose GI%, renal; format: cell-based, human; conditions: UO-31, renal; 10.0 μM in one dose
MDA-MB-468 = assay: NCI single-dose GI%, breast; format: cell-based, human; conditions: MDA-MB-468, breast; 10.0 μM in one dose
OVCAR-4 = assay: NCI single-dose GI%, ovarian; format: cell-based, human; conditions: OVCAR-4, ovarian; 10.0 μM in one dose
CAKI-1 = assay: NCI single-dose GI%, renal; format: cell-based, human; conditions: CAKI-1, renal; 10.0 μM in one dose
EKVX = assay: NCI single-dose GI%, NSC lung; format: cell-based, human; conditions: 10.0 μM in one dose
T-47D = assay: NCI single-dose GI%, breast; format: cell-based, human; conditions: 10.0 μM in one dose
SK-MEL-5 = assay: NCI single-dose GI%, melanoma; format: cell-based, human; conditions: SK-MEL-5, melanoma; 10.0 μM in one dose
HOP-62 = assay: NCI single-dose GI%, NSC lung; format: cell-based, human; conditions: HOP-62, NSC lung; 10.0 μM in one dose
K-562 = assay: NCI single-dose GI%, leukemia; format: cell-based, human; conditions: K-562, leukemia; 10.0 μM in one dose
KM12 = assay: NCI single-dose GI%, colon; format: cell-based, human; conditions: 10.0 μM in one dose
MOLT-4 = assay: NCI single-dose GI%, leukemia; format: cell-based, human; conditions: MOLT-4, leukemia; 10.0 μM in one dose
PC-3 = assay: NCI single-dose GI%, prostate; format: cell-based, human; conditions: PC-3, prostate; 10.0 μM in one dose
59 cancer cell lines = assay: NCI 59 cancer cell line panel, single dose; format: cell-based, human; conditions: 10 μM single dose; for MG% (mean growth percent): 59 cell lines
MCF7 = assay: NCI single-dose GI%, breast; format: cell-based, human; conditions: 10.0 μM in one dose
NCI-H522 = assay: NCI single-dose GI%, NSC lung; format: cell-based, human; conditions: 10.0 μM in one dose
HL-60(TB) = assay: NCI single-dose GI%, leukemia; format: cell-based, human; conditions: 10.0 μM in one dose
HCT-116 = assay: NCI single-dose GI%, colon; format: cell-based, human; conditions: HCT-116, colon; 10.0 μM in one dose
HCT-15 = assay: NCI single-dose GI%, colon; format: cell-based, human; conditions: HCT-15, colon; 10.0 μM in one dose
BT-549 = assay: NCI single-dose GI%, breast; format: cell-based, human; conditions: BT-549, breast; 10.0 μM in one dose
A549/ATCC = assay: NCI single-dose GI%, NSC lung; format: cell-based, human; conditions: 10.0 μM in one dose
A498 = assay: NCI single-dose GI%, renal; format: cell-based, human; conditions: 10.0 μM in one dose
SK-OV-3 = assay: NCI single-dose GI%, ovarian; format: cell-based, human; conditions: SK-OV-3, ovarian; 10.0 μM in one dose
COLO 205 = assay: NCI single-dose GI%, colon; format: cell-based, human; conditions: COLO 205, colon; 10.0 μM in one dose
HT29 = assay: NCI single-dose GI%, colon; format: cell-based, human; conditions: 10.0 μM in one dose
U251 = assay: NCI single-dose GI%, CNS; format: cell-based, human; conditions: 10.0 μM in one dose
UACC-257 = assay: NCI single-dose GI%, melanoma; format: cell-based, human; conditions: UACC-257, melanoma; 10.0 μM in one dose
NCI-H322M = assay: NCI single-dose GI%, NSC lung; format: cell-based, human; conditions: 10.0 μM in one dose
OVCAR-8 = assay: NCI single-dose GI%, ovarian; format: cell-based, human; conditions: OVCAR-8, ovarian; 10.0 μM in one dose
TK-10 = assay: NCI single-dose GI%, renal; format: cell-based, human; conditions: TK-10, renal; 10.0 μM in one dose
HL-60 cells = assay: Cell cycle analysis by flow cytometry; format: cell-based, human; conditions: at IC50 concentration
Description: Flow cytometry measures cell growth in different cell cycle phases (G0–G1, S, G2/M and pre-G1).[33,77] This study aimed to find out how the target compounds affect the growth of cancer cells by examining at how they change the cell cycle and cause apoptosis in HL-60 cells.
The cell cycle analysis was conducted similarly to our prior study, using the leukemia HL-60 cell line. The cells were stained with the DNA fluorochrome PI and analyzed using a FACSCalibur flow cytometer.[33,77]

UACC-62 = assay: NCI single-dose GI%, melanoma; format: cell-based, human; conditions: UACC-62, melanoma; 10.0 μM in one dose
RPMI-8226 = assay: NCI single-dose GI%, leukemia; format: cell-based, human; conditions: RPMI-8226, leukemia; 10.0 μM in one dose
SR = assay: NCI single-dose GI%, leukemia; format: cell-based, human; conditions: 10.0 μM in one dose
MALME-3M = assay: NCI single-dose GI%, melanoma; format: cell-based, human; conditions: 10.0 μM in one dose
SF-268 = assay: NCI single-dose GI%, CNS; format: cell-based, human; conditions: SF-268, CNS; 10.0 μM in one dose

Compound | GI% (NCI-H226) | GI% (SNB-75) | GI% (UO-31) | GI% (MDA-MB-468) | GI% (CAKI-1) | GI% (EKVX) | GI% (T-47D) | GI% (HOP-62) | GI% (K-562) | GI% (MOLT-4) | melting point | GI% (PC-3) | PCE (positive cytotoxic effect: ratio of cell lines with growth inhibition >10% to total cell lines) (59 cancer cell lines) | MG% (mean growth percent) (59 cancer cell lines) | GI% (MCF7) | GI% (NCI-H522) | GI% (HL-60(TB)) | GI% (HCT-116) | GI% (A549/ATCC) | GI% (SK-OV-3) | also measured
COc1ccc(C2=NN(C(=O)c3ccc(S(C)(=O)=O)cc3)C(c3ccccc3)C2)c(OC)c1 (stereo not shown) [Compound 18n, (3-(2,4-Dimethoxyphenyl)-5-phenyl-4,5-dihydro-1H-pyrazol-1-yl)(4-(methylsulfonyl)phenyl)methanone] | 14% | 15% | 24% | 36% | 15% | 28% | 14% | 20% | 26% | 38% | 216 to 218 °C | 15% | 20/59 | 93.24% | 65% | 20% | 55% | 18% | – | – | GI% (SK-MEL-2): 18%; GI% (MDA-MB-231/ATCC): 12%; GI% (OVCAR-4): 12%; GI% (SK-MEL-5): 21%; GI% (KM12): 12%
CS(=O)(=O)c1ccc(C(=O)N2N=C(c3ccccc3)CC2c2ccc3c(c2)OCO3)cc1 (stereo not shown) [Compound 18m, (5-(Benzo[d][1,3]dioxol-5-yl)-3-phenyl-4,5-dihydro-1H-pyrazol-1-yl)(4-(methylsulfonyl)phenyl)methanone] | 11% | 12% | 34% | – | – | – | 22% | 17% | 40% | 48% | 155 to 157 °C | 15% | 18/59 | 91.96% | 16% | 13% | 63% | 18% | 20% | 16% | GI% (HCT-15): 14%; GI% (BT-549): 14%; GI% (A498): 14%; GI% (COLO 205): 19%
COc1ccc(C2=NN(C(=O)c3ccc(S(C)(=O)=O)cc3)C(c3cc(OC)c(OC)c(OC)c3)C2)cc1OC (stereo not shown) [Compound 18q, (3-(3,4-Dimethoxyphenyl)-5-(3,4,5-trimethoxyphenyl)-4,5-dihydro-1H-pyrazol-1-yl)(4-(methylsulfonyl)phenyl)methanone] | – | 13% | 24% | 12% | 13% | – | – | – | – | – | 150 to 152 °C | – | 6/59 | 97.51% | 12% | – | – | – | – | – | GI% (A498): 13%
CS(=O)(=O)c1ccc(C(=O)N2N=C(c3ccc(F)cc3)CC2c2ccccc2)cc1 (stereo not shown) [Compound 18d, (3-(4-Fluorophenyl)-5-phenyl-4,5-dihydro-1H-pyrazol-1-yl)(4-(methylsulfonyl)phenyl)methanone] | – | – | 27% | – | 14% | 16% | 17% | 29% | 32% | 37% | 311 to 313 °C | – | 18/59 | 93.02% | – | 43% | 57% | – | 24% | 13% | GI% (HT29): 14%; GI% (U251): 17%; GI% (BT-549): 15%; GI% (UACC-257): 37%; GI% (NCI-H322M): 14%; GI% (OVCAR-8): 15%; GI% (TK-10): 12%
Cc1ccc(C2CC(c3ccccc3)=NN2C(=O)c2ccc(S(C)(=O)=O)cc2)cc1 (stereo not shown) [Compound 18f, (4-(Methylsulfonyl)phenyl)(3-phenyl-5-(4-tolyl)-4,5-dihydro-1H-pyrazol-1-yl)methanone] | 17% | 20% | 24% | 15% | 16% | 13% | 16% | 12% | – | 30% | 225 to 227 °C | 28% | 21/59 | 93.80% | 11% | 37% | 14% | 20% | 16% | – | GI% (SK-MEL-2): 11%; GI% (HT29): 12%; GI% (U251): 11%; GI% (UACC-257): 26%; phase of cell cycle arrest (HL-60 cells): S/G2 phase; GI% (UACC-62): 12%; GI% (RPMI-8226): 18%
CS(=O)(=O)c1ccc(C(=O)N2N=C(c3ccccc3)CC2c2ccccc2)cc1 (stereo not shown) [Compound 18a, (3,5-Diphenyl-4,5-dihydro-1H-pyrazol-1-yl)(4-(methylsulfonyl)phenyl)methanone] | 11% | – | 12% | – | – | 11% | – | – | 19% | 32% | 259 to 261 °C | – | 11/59 | 98.11% | – | 18% | 32% | – | 18% | – | GI% (SR): 13%; GI% (UACC-257): 14%; GI% (MALME-3M): 11%
COc1ccc(C2=NN(C(=O)c3ccc(S(C)(=O)=O)cc3)C(c3ccc(OC)c(OC)c3)C2)c(OC)c1 (stereo not shown) [Compound 18p, (3-(2,4-Dimethoxyphenyl)-5-(3,4-dimethoxyphenyl)-4,5-dihydro-1H-pyrazol-1-yl)(4-(methylsulfonyl)phenyl)methanone] | 15% | – | 25% | 13% | – | – | 25% | 26% | 23% | – | 169 to 171 °C | – | 11/59 | 97.33% | – | 13% | 31% | 17% | – | 16% | GI% (SF-268): 11%
